Where a name gives a salt, the structure may show the parent alone.
Experiment: solubility in water of the potassium salt of Diacerein
Format: physicochemical
Conditions: in water at neutral pH (pH=7)
Method: Type A Process: The first step of the process (a.) is to salify the raw Diacerein to obtain a salt of Diacerein which is soluble in water. The water soluble salt of Diacerein is preferably an inorganic salt of Diacerein, more preferably a salt of Diacerein with an alkali metal. In a preferred embodiment, the salt of Diacerein is a potassium salt of Diacerein or a sodium salt of Diacerein. The solubility of potassium salt of Diacerein is around 1 g/50 ml of water at neutral pH (pH=7).

For `CC(=O)Oc1cccc2c1C(=O)c1c(OC(C)=O)cc(C(=O)O)cc1C2=O` [potassium salt of Diacerein, 1,8-diacetoxy-3-carboxyanthraquinone], the solubility was “around 1 g/50 ml”.

Reference: US8598232B2, “Process for the preparation of non-genotoxic diacetylrhein (diacerein) and formulations comprising non-genotoxic diacetylrhein” (Evultis SA, priority 2008, dated 2013)
